row,Compound,melting point [°C]
1,Cc1cc(Cn2nnc(C(N)=O)c2N)cc(Cl)c1C(=O)c1ccc(Cl)cc1,205 to 206
2,O=C(O)CCCc1ccc(CCN(CC=Cc2ccc(Cl)cc2)S(=O)(=O)c2ccc(Cl)cc2)cc1,112 to 113
3,NC(=O)c1cccc(Cn2ccc(OCc3ccc(F)cc3F)c(Br)c2=O)c1,198 to 201
4,O=c1c2ccccc2[nH]n1CC#Cc1ccccc1,151 to 154
5,[N-]=[N+]=Nc1nc2c(N)ncnc2n1C1CC(O)C(CO)O1 (stereo unspecified),177 to 179
6,CCOC(=O)c1cnc2nc(OCC)ccc2c1O,175 to 179
7,CC(=O)Oc1ccc(Cc2n[nH]c3c2c(=O)n(-c2ccccc2)c2ncccc32)cc1,278 to 282
8,CCOC(=O)c1[nH]c2cc(Cl)cc(Cl)c2c1NCCC(=O)c1ccccc1Cc1ccccc1,208 to 209
9,NS(=O)(=O)c1ccc(-n2nc(C=O)cc2-c2ccccc2)cc1,177 to 180
10,Cc1cc(CCCCCCCOc2ccc(C(N)=O)cc2)on1,153 to 154
11,Cc1ccc(Nc2nc(Cl)nc3ccccc23)cc1,198 to 199
12,Nc1cc(-c2c[nH]cn2)ccn1,193 to 196
13,COc1ccc(/C=C/C(=O)Nc2cc3ccccc3cc2C(=O)O)cc1OC,212 to 213
14,NCc1ccc2ccnc(N)c2c1,114 to 117
15,O=C1NC(=O)C(c2ccc(OCCC(c3ccccc3)(c3ccccc3)c3ccccc3)cc2)S1 (stereo unspecified),85 to 87
16,CC(CCNC1=Nc2cccc3cccc1c23)c1ccncc1 (stereo unspecified),220 to 221
17,COC(=O)CC(N)c1cc2ccccc2nc1Cl (stereo unspecified),103 to 106
18,NC(CCCl)C(=O)c1ccccc1 (stereo unspecified),44 to 46
19,CN(C)c1ncc(Br)cn1,81 to 82
20,CCCCc1nc2ccccc2n1Cc1ccc(-c2ccccc2C(=O)OC)cc1,132 to 134
21,O=S(=O)(CCc1ccc(Cl)cc1)CCc1ccc(Cl)cc1,42 to 43
22,c1ccc(-c2nc(COc3cccc(CCCn4ccnc4)c3)co2)cc1,62 to 63
23,Cc1ccc(C(=O)OCn2c(Br)c(Br)c(S(=O)(=O)C(F)(F)F)c2-c2ccc(Cl)cc2)cc1,74 to 78

row,Compound,melting point [°C]
1,O=Cc1c(Cl)cc(OCc2ccccc2)cc1OCc1ccccc1,85 to 86
2,Cn1cnc(COc2nn3c(-c4ccc(F)cc4)nnc3cc2-c2ccsc2)n1,254 to 255
3,COCCCCC(O)(c1ccccc1)c1ccccc1,112 to 115
4,Cc1cc(=O)n(-c2cccc(Cl)c2)n1C,98 to 100
5,Nc1cnc2cc3c(cc2c1-c1ccccc1Cl)CCC3,179 to 180
6,Cc1cc(N)nc(/C=C/c2nc3cc(Br)cnc3[nH]2)c1,280
7,O=C(CCc1cccnc1)c1c(O)c2cccnc2n(-c2ccccc2)c1=O,219 to 220
8,CCCCCCCCS(=O)(=O)NCCCCOc1ccc(-n2ccnc2)cc1,99 to 100
9,COc1ccc(/C(=C/c2ccncc2)c2ccco2)cc1OC1CCCC1,122 to 123
10,C=CC[C@](N)(Cc1ccccc1)C(=O)O,158 to 159
11,C=C(C)c1ccc2cc(OC)ccc2c1,101
12,CCOC(=O)C(Br)=C(Br)c1ccc(Cl)cc1,67 to 68
13,Brc1ccc2scnc2c1,104 to 106
14,CC(=O)Oc1ccc(-c2ccc(F)cc2)cc1C(=O)O,134 to 137
15,COc1cc(OCCNC(C)=O)cc(-c2nc3cc(OC)cc(OC)c3c(=O)[nH]2)c1,264 to 265
16,COc1cc(C(=O)c2csc(Nc3ccc(Cl)cc3)n2)cc(OC)c1OC,165 to 166
17,CCNc1c(OC)cc(Cc2cnc(N)nc2N)cc1OC,186 to 188
18,Cc1n[nH]c(C)c1Cc1cc(Cl)cc(Cl)c1,133 to 134
19,COc1cc2nc(N)nc(-c3ccc(O)c(I)c3)c2cc1OC,248 to 250
20,CCOC(=O)c1cnn2c1c(NCCCN(C)C)nc1ccccc12,72 to 74
21,COC(=O)c1ccccc1Oc1ccc(Br)cc1[N+](=O)[O-],82 to 83
22,OCCOc1c(Br)cc(Br)c2cccnc12,128 to 131
23,O=C1O[C@@H]2C[C@@]1(O)c1cc(Cc3ccccc3)sc1[C@H]2O,116 to 118

row,Compound,melting point [°C]
1,FC(F)(F)c1cc(CO[C@H]2CCCN(Cc3ncncn3)[C@H]2c2ccccc2)cc(C(F)(F)F)c1,117 to 119
2,O=C(c1ccc(Oc2ccccc2)cc1)c1cccc(C(=O)c2ccc(Oc3ccccc3)cc2)c1,117 to 119
3,CC(Cl)C(=O)NCCO (stereo unspecified),64
4,CCCN(CCC)c1c([N+](=O)[O-])cc(C)c(C(C)C)c1[N+](=O)[O-],48.5 to 49
5,CC(C)(N)Cc1c[nH]c2ccccc12,72 to 74
6,CCOC(=O)C(Cc1ccccc1)CP(=O)(OCC)OCC (stereo unspecified),58 to 72
7,COc1ccc2[nH]nc(N3CCNCC3)c2c1,163 to 169
8,O=C(NCCSCc1cccc(Cl)c1)c1ccccc1,75 to 76
9,CCc1cc(SCc2ccc(-c3ccccc3C#N)cc2)n2nccc2n1,153 to 155
10,CCOC(=O)c1cc2cc([N+](=O)[O-])ccc2s1,163
11,COC(=O)C(C)(C)OCC#Cc1cc(Cl)ccc1NS(=O)(=O)c1ccc2nc(NC(C)=O)sc2c1,80
12,CCCCC(CO)Nc1ccc([N+](=O)[O-])cc1C(=O)NCc1ccc2c(c1)OCO2 (stereo unspecified),112 to 115
13,NC1=NCC(COc2ccccc2F)O1 (stereo unspecified),124
14,CC1SC(=O)NN=C1c1ccc2c(c1)C(C)(C)C(=O)N2C(=O)Oc1ccccc1 (stereo unspecified),248
15,Cn1c(C(F)(F)F)cc(=O)n(-c2c(F)ccc3nc(Cl)sc23)c1=O,69 to 71
16,CCCCS(=O)(=O)Nc1c(C)c(C)c2c(c1C)C(c1ccc(C(C)C)cc1)CO2 (stereo unspecified),96 to 97
17,CN(C)c1ccc(-c2nc(C#N)c(C#N)nc2C#N)cc1,198 to 200
18,COC(=O)c1[nH]c2c(C)ccc(C)c2c1C=NOCc1ccccc1,104 to 105
19,Cc1sc2c(Cl)c(Cl)c(O)cc2c1C,143 to 144
20,O=C1CC2c3ccccc3CCN2C2CCCCC12 (stereo unspecified),112 to 140
21,CC(=O)OC1C(N2CCCC2)CC2C3CCC4CC(O)C(N5CCOCC5)CC4(C)C3CCC21C (stereo unspecified),149 to 153

# Other lines, results leading:
row,melting point [°C],Compound
1,162 to 164,CS(=O)(=O)c1ccc(C(=O)C(C#N)C(=O)C2CC2)c(Cl)c1-c1nccs1 (stereo unspecified)
2,97 to 99,CCOP(=O)(CC(=O)N1CCc2ccccc21)OCC
3,147 to 150,C#CC1(O)CCC2(C)C(CCC3C4CCC(C(C)=O)C4(C)C=CC32)C1 (stereo unspecified)
4,186 to 189,CC1(C)NC(=O)N(CC(CS(=O)(=O)c2ccc(-c3cccc(CC#N)c3)cc2)N(O)C=O)C1=O (stereo unspecified)
5,127 to 128,CC(C)OC(=O)Cn1c(=O)n(C)c(=O)n(-c2ccc(F)cc2Cl)c1=O
6,228 to 233,COC(=O)N(C)C1CN(C(=O)Nc2ccc(OC(F)(F)F)cc2)N=C1c1ccc(O)cc1 (stereo unspecified)
7,116 to 120,O=C(NCCC1CCCCC1)c1cc(-c2ccc(Cl)c(C(=O)O)n2)ccc1Cl
8,206 to 210,O=C1COc2cc(F)c(N3C(=O)C4=C(CCCC4)C3=O)cc2N1Cc1ccon1
9,158 to 160,CN1C=C(C(=O)O)C(C(=N)O)=NC1N1CCN(Cc2ccccc2)CC1 (stereo unspecified)
10,186 to 190,O=C(O)c1[nH]c2ccc(C(O)(C(F)(F)F)C(F)(F)F)cc2c1-c1ccccc1
11,198,CC(=O)Nc1nc(Cl)c2ncn([C@@H]3C[C@H](OC(C)=O)[C@@H](O)[C@H]3O)c2n1 (racemic)
12,164 to 165,CCOC(=O)C(=O)CC(=O)c1cn(Cc2ccc(F)cc2)c2c(Cl)cccc2c1=O
13,167 to 169,CCCCc1nn(-c2cc(NC(=O)CC)ccc2C(F)(F)F)c(=O)n1Cc1ccc(-c2ccccc2S(=O)(=O)NC(=O)OC(C)(C)C)cc1F
14,152 to 157,O=C(O)c1c(SCCO)c(SCCO)c(SCCO)c(SCCO)c1C(O)=NCCO
15,160,O=C(CC1CCN(CCCn2c(=O)[nH]c3ccccc32)CC1)c1cccc(Cl)c1
16,180 to 182,CC12CCC3c4ccc(C(=O)O)cc4CCC3C1CCC2C(=O)c1ccco1 (stereo unspecified)
17,235 to 236,CC1(NC(=O)c2ccccc2)COC(c2nc(-c3ccc(F)cc3)c(-c3ccncc3)[nH]2)OC1 (stereo unspecified)

row,melting point [°C],Compound
1,136 to 137,CN1CCN(c2cccc3c2C[C@H](NC(=O)c2cccc(Oc4ccccc4)c2)CC3)CC1
2,84 to 86,CCOC(=O)COc1ccc2c(c1)C(=O)CCC2
3,191 to 193,O=C1CC[C@@H](C(=O)N[C@@H](CSSC[C@H](NC(=O)[C@@H]2CCC(=O)N2)C(=O)O)C(=O)O)N1
4,181,CC(C)(C)OC(=O)Nc1cc(OCC2COC(=O)O2)c(C#Cc2ccccc2)cc1NC(=O)CC(=O)c1cccc(C#N)c1 (racemic)
5,158 to 159,CC(=O)CCNC(=O)n1cc(F)c(=O)[nH]c1=O
6,77 to 78,C=CC(=O)CCC1=CC(=O)NC1=O
7,121 to 122,CCCN(C(C)C)[C@H]1COc2cccc(C(N)=O)c2C1
8,162 to 164,COc1ccccc1N1CCN(CCC2C(=O)NCN3CCC4SC=C(C4=O)C(=O)C23)CC1 (stereo unspecified)
9,244 to 246,CC(=O)Nc1cc2c(cc1[N+](=O)[O-])OC(C)(C)[C@@H](O)[C@@H]2NC(C)=O (relative stereo)
10,76.9,CCOC(=O)N1CC[C@@H](N)[C@H](O)C1 (relative stereo)
11,179 to 181,O=[N+]([O-])c1cc(Cl)c(Cl)cc1N[C@@H]1C[C@H](CO)[C@@H](O)[C@H]1O
12,102,Cc1cc2n(c1C(=O)c1cccs1)CCC2C(=O)OC(C)C (stereo unspecified)
13,157 to 158,O=C1Nc2cccnc2N(C(=O)NCCN2CCCCC2CNCC2CCCC2)c2ccccc21 (stereo unspecified)
14,94 to 98,C=CC12CCC3(C)C(F)C(O)CC3C1CCc1cc(O)ccc12 (stereo unspecified)
15,106 to 109,O=C(O)C1OC(c2ccccc2)=NN1C(=O)CCS (stereo unspecified)
16,98 to 99,COC(=O)C(=O)c1sccc1COc1ccccc1
17,55 to 58,CC(N)=CC(=O)OCC1CC1

# Reference: a melting point compilation (Tetko et al.; mined from patent text by program, amines drawn as free bases though some values may be those of a salt)
